Results on ten compounds are retold here after patent US8614201B2 (Janssen Pharmaceutica NV, priority 2009, dated 2013).

Chain of Human TRPA1 (O75762 whole entry): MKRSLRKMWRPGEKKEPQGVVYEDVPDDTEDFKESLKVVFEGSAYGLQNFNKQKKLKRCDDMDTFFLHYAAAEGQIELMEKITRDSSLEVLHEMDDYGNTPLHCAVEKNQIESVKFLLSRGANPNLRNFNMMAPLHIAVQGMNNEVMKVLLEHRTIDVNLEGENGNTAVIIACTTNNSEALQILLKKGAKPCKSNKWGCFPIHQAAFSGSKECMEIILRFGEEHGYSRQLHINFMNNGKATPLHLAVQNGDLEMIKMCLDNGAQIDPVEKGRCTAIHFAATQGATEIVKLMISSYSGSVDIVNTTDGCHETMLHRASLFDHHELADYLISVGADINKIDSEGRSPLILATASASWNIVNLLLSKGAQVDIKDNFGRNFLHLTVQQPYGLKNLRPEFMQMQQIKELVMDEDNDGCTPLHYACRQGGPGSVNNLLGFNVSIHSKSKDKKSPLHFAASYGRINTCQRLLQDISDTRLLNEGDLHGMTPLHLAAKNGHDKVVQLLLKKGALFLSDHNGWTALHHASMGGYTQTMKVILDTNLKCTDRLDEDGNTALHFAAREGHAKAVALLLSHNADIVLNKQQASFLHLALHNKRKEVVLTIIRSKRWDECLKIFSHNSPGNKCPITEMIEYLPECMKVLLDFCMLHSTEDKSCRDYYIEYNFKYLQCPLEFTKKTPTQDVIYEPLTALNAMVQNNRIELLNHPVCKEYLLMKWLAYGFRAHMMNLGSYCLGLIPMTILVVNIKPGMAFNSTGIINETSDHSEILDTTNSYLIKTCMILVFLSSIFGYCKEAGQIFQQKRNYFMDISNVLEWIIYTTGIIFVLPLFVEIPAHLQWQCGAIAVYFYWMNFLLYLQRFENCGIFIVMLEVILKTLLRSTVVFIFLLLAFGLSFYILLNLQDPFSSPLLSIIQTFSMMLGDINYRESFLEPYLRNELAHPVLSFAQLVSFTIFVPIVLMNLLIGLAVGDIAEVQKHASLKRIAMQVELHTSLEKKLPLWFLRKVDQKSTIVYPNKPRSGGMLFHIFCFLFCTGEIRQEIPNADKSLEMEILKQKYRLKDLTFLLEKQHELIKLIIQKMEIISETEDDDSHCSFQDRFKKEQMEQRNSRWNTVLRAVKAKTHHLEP

This assay addresses Human TRPA1 (Homo sapiens, UniProt O75762). Put plainly: Alternative TRPA1 Ca2+ fluorometry assay (hTRPA1/TREx-HEK293 cells, Fluo-4, FDSS 6000). The format is cell-based. Details: expressed in transfected cells. To be noted: Fluo-4-AM, agonist 6,11-dihydro-5H-dibenzo[b,e]azepine-10-carboxylic acid methyl ester 25 nM, procedure used for Examples 184, 190 to 192, 194 to 316. The method in brief:
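Tetracycline-induced (50 ng/ml, 24 h) hTRPA1/TREx-HEK293 cells were loaded with Fluo-4-AM and probenecid. Compound (1% DMSO final) was added after a 12 s baseline and the Ca2+ signal followed for 14 min, then 25 nM TRPA1 agonist dibenzazepine carboxylic acid methyl ester was applied. Signal is Em540 (ex 488 nm) relative to the first baseline reading.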
Usually IC50 stands for the point on the concentration scale where inhibition reaches its midpoint. A higher IC50 goes with a need for much substance. `O=C(NCc1cc(-c2ccc3c(c2)OCO3)nc(N2CCN(c3ccccc3F)CC2)n1)[C@@H]1CCCN1S(=O)(=O)c1ccc(F)cc1` [Example 238, 1-(4-Fluoro-benzenesulfonyl)-pyrrolidine-2S-carboxylic acid {6-benzo[1,3]dioxol-5-yl-2-[4-(2-fluoro-phenyl)-piperazin-1-yl]-pyrimidin-4-ylmethyl}-amide] showed an IC50 of 1290 nM.

The compound `O=C(NCc1cc(-c2ccc(C(F)(F)F)cc2)nc(N2CCN(c3ccccc3F)CC2)n1)[C@@H]1CCCN1S(=O)(=O)c1cccc(Cl)c1F` [Example 273, 1-(3-Chloro-2-fluoro-benzenesulfonyl)-pyrrolidine-2S-carboxylic acid [2-[4-(2-fluoro-phenyl)-piperazin-1-yl]-6-(4-trifluoromethyl-phenyl)-pyrimidin-4-ylmethyl]-amide] came in with an IC50 of over 10000 nM.

In turn, `O=C(NCc1cc(-c2cccc(OC(F)(F)F)c2)nc(N2CCN(c3ccccc3F)CC2)n1)[C@@H]1CCCN1S(=O)(=O)c1ccc(F)cc1` [Example 234, 1-(4-Fluoro-benzenesulfonyl)-pyrrolidine-2S-carboxylic acid [2-[4-(2-fluoro-phenyl)-piperazin-1-yl]-6-(3-trifluoromethoxy-phenyl)-pyrimidin-4-ylmethyl]-amide] registered an IC50 of over 10000 nM. As for `CC(C)[C@@H](CO)Nc1nc(CNC(=O)[C@@H]2CCCN2S(=O)(=O)c2ccc(F)cc2)cc(-c2ccc(C(F)(F)F)cc2)n1` [Example 308, 1-(4-Fluoro-benzenesulfonyl)-pyrrolidine-2S-carboxylic acid [2-(1-hydroxymethyl-2-methyl-propylamino)-6-(4-trifluoromethyl-phenyl)-pyrimidin-4-ylmethyl]-amide], the IC50 was 1780 nM. The compound `O=C(NCc1cc(-c2ccc(C(F)(F)F)cc2)nc(-c2ccc(C(F)(F)F)cc2)n1)[C@@H]1CCCN1S(=O)(=O)c1ccc(F)cc1` [Example 285, 1-(4-Fluoro-benzenesulfonyl)-pyrrolidine-2S-carboxylic acid [2,6-bis-(4-trifluoromethyl-phenyl)-pyrimidin-4-ylmethyl]-amide] registered an IC50 of 22 nM. For the compound `O=C(NCc1cc(-c2ccc3c(c2)OCO3)nc(Nc2cccc(Cl)c2)n1)[C@@H]1CCCN1S(=O)(=O)c1ccc(F)cc1` [Example 223, 1-(4-Fluoro-benzenesulfonyl)-pyrrolidine-2S-carboxylic acid [6-benzo[1,3]dioxol-5-yl-2-(3-chloro-phenylamino)-pyrimidin-4-ylmethyl]-amide], the IC50 was over 10000 nM. `CC(=O)c1ccc(S(=O)(=O)N2CCC[C@H]2C(=O)NCc2cc(-c3ccc(C(F)(F)F)cc3)nc(N3CCN(c4ccccc4F)CC3)n2)cc1` [Example 274, 1-(4-Acetyl-benzenesulfonyl)-pyrrolidine-2S-carboxylic acid [2-[4-(2-fluoro-phenyl)-piperazin-1-yl]-6-(4-trifluoromethyl-phenyl)-pyrimidin-4-ylmethyl]-amide] had an IC50 of over 10000 nM. For the compound `Cc1cc(C)cc(-c2cc(CNC(=O)[C@@H]3CCCN3S(=O)(=O)c3ccc(F)cc3)nc(N3CCN(c4ccccc4F)CC3)n2)c1` [Example 236, 1-(4-Fluoro-benzenesulfonyl)-pyrrolidine-2S-carboxylic acid {6-(3,5-dimethyl-phenyl)-2-[4-(2-fluoro-phenyl)-piperazin-1-yl]-pyrimidin-4-ylmethyl}-amide], the IC50 was over 10000 nM. With `O=C(NCc1cc(-c2ccc(F)c(Cl)c2)nc(N2CCN(c3ccccc3F)CC2)n1)[C@@H]1CCCN1S(=O)(=O)c1ccc(F)cc1` [Example 244, 1-(4-Fluoro-benzenesulfonyl)-pyrrolidine-2-carboxylic acid {6-(3-chloro-4-fluoro-phenyl)-2-[4-(2-fluoro-phenyl)-piperazin-1-yl]-pyrimidin-4-ylmethyl}-amide], the IC50 is over 10000 nM. As for `CN1CCN(c2nc(CNC(=O)[C@@H]3CCCN3S(=O)(=O)c3ccc(F)cc3)cc(-c3ccc(C(F)(F)F)cc3)n2)CC1` [Example 314, 1-(4-Fluoro-benzenesulfonyl)-pyrrolidine-2-carboxylic acid [2-(4-methyl-piperazin-1-yl)-6-(4-trifluoromethyl-phenyl)-pyrimidin-4-ylmethyl]-amide], the figure is about 1320 nM.
